# What was measured:
# [1] = system: Human immunodeficiency virus 1; experiment: Antiviral activity against HIV-1 NLRep-Rluc infected in human MT2 cells assessed as inhibition of viral growth incubated for 96 hrs by renilla luciferase assay; type: functional, organism-based
# MT2 = experiment: Cytotoxicity against human MT2 cells assessed as reduction in cell viability incubated for 4 days by XTT assay; type: toxicity, cell-based; conditions: mt2, 96 h, 96 h, time 4 day
# [2] = Clearance in Sprague-Dawley rat at 1 mg/kg, iv and measured upto 96 hrs by LC-MS/MS analysis; type: ADME, organism-based; conditions: in vivo
# [3] = Selectivity index, ratio of CC50 for cytotoxicity against human MT2 cells to EC50 for antiviral activity against HIV-1 NLRep-Rluc infected in human MT2 cells; type: toxicity, cell-based; conditions: read-out: Ratio CC50/EC50
# [4] = Human immunodeficiency virus 1, NLRep-Rluc, MT2, 96 h
clearance [2] [mL/min/kg],Structure (SMILES),"EC50 [1, 4] [nM]",other results
,Cn1nc(NS(C)(=O)=O)c2c(Cl)ccc(-n3c([C@H](Cc4cc(F)cc(F)c4)NC(=O)Cn4nc(C(F)F)c5c4C(F)(F)[C@@H]4C[C@H]54)nc4cc(Br)ccc4c3=O)c21,0.053,
,CO[C@@H]1CCN(c2ccc3c(=O)n(-c4ccc(Cl)c5c(NS(C)(=O)=O)nn(C)c45)c([C@H](Cc4cc(F)cc(F)c4)NC(=O)Cn4nc(C(F)F)c5c4C(F)(F)[C@@H]4C[C@H]54)nc3c2)C1,0.058,
,Cn1nc(NS(C)(=O)=O)c2c(Cl)ccc(-n3c([C@H](Cc4cc(F)cc(F)c4)NC(=O)Cn4nc(C(F)F)c5c4C(F)(F)[C@@H]4C[C@H]54)nc4cc(N5CCC6(CC5)COC6)ccc4c3=O)c21,0.13,
,Cn1nc(NS(C)(=O)=O)c2c(Cl)ccc(-n3c([C@H](Cc4cc(F)cc(F)c4)NC(=O)Cn4nc(C(F)F)c5c4C(F)(F)[C@@H]4C[C@H]54)nc4cc(N5C[C@H]6CC[C@@H](C5)O6)ccc4c3=O)c21,0.064,
,Cn1nc(NS(C)(=O)=O)c2c(Cl)ccc(-n3c([C@H](Cc4cc(F)cc(F)c4)NC(=O)Cn4nc(C(F)F)c5c4C(F)(F)[C@@H]4C[C@H]54)nc4cccc(F)c4c3=O)c21,0.13,
,Cn1nc(NS(C)(=O)=O)c2c(Cl)ccc(-n3c([C@H](Cc4cc(F)cc(F)c4)NC(=O)Cn4nc(C(F)F)c5c4C(F)(F)[C@@H]4C[C@H]54)nc4ccccc4c3=O)c21 (stereo in doubt; 13a),,EC50 ([1]; mt2): 81 nM; CC50 (MT2): > 1000 nM
,COc1cccc2c(=O)n(-c3ccc(Cl)c4c(NS(C)(=O)=O)nn(C)c34)c([C@H](Cc3cc(F)cc(F)c3)NC(=O)Cn3nc(C(F)F)c4c3C(F)(F)[C@@H]3C[C@H]43)nc12,0.095,
,CCN(CC)c1ccc2c(=O)n(-c3ccc(Cl)c4c(NS(C)(=O)=O)nn(C)c34)c([C@H](Cc3cc(F)cc(F)c3)NC(=O)Cn3nc(C(F)F)c4c3C(F)(F)[C@@H]3C[C@H]43)nc2c1,0.2,
78,Cn1nc(NS(C)(=O)=O)c2c(Cl)ccc(-n3c([C@H](Cc4cc(F)cc(F)c4)NC(=O)Cn4nc(C(F)F)c5c4C(F)(F)[C@@H]4C[C@H]54)nc4cc(S(C)(=O)=O)ccc4c3=O)c21,0.15,
82,Cn1nc(NS(C)(=O)=O)c2c(Cl)ccc(-n3c([C@H](Cc4cc(F)cc(F)c4)NC(=O)Cn4nc(C(F)F)c5c4C(F)(F)[C@@H]4C[C@H]54)nc4cc(C#N)ccc4c3=O)c21,0.017,
18,Cn1nc(NS(C)(=O)=O)c2c(Cl)ccc(-n3c([C@H](Cc4cc(F)cc(F)c4)NC(=O)Cn4nc(C(F)F)c5c4C(F)(F)[C@@H]4C[C@H]54)nc4cc(N5CC6(COC6)C5)ccc4c3=O)c21,0.064,
,Cn1nc(NS(C)(=O)=O)c2c(Cl)ccc(-n3c([C@H](Cc4cc(F)cc(F)c4)NC(=O)Cn4nc(C(F)F)c5c4C(F)(F)[C@@H]4C[C@H]54)nc4cc(N5[C@@H]6CC[C@H]5COC6)ccc4c3=O)c21,0.057,
,COc1cccc2nc([C@H](Cc3cc(F)cc(F)c3)NC(=O)Cn3nc(C(F)F)c4c3C(F)(F)[C@@H]3C[C@H]43)n(-c3ccc(Cl)c4c(NS(C)(=O)=O)nn(C)c34)c(=O)c12 (stereo in doubt; 12d),,selectivity ratio [3]: > 1000; EC50 ([1]; mt2): 0.11 nM; CC50 (MT2): > 20000 nM
,COc1ccc2c(=O)n(-c3ccc(Cl)c4c(NS(C)(=O)=O)nn(C)c34)c([C@H](Cc3cc(F)cc(F)c3)NC(=O)Cn3nc(C(F)F)c4c3C(F)(F)[C@@H]3C[C@H]43)nc2c1 (stereo in doubt; 13b),,EC50 ([1]; mt2): 9.8 nM; CC50 (MT2): > 1000 nM
,COc1cccc2nc([C@H](Cc3cc(F)cc(F)c3)NC(=O)Cn3nc(C(F)F)c4c3C(F)(F)[C@@H]3C[C@H]43)n(-c3ccc(Cl)c4c(NS(C)(=O)=O)nn(C)c34)c(=O)c12 (stereo in doubt; 13d),,EC50 ([1]; mt2): 130 nM; CC50 (MT2): > 1000 nM
40,Cn1nc(NS(C)(=O)=O)c2c(Cl)ccc(-n3c([C@H](Cc4cc(F)cc(F)c4)NC(=O)Cn4nc(C(F)F)c5c4C(F)(F)[C@@H]4C[C@H]54)nc4cc(F)ccc4c3=O)c21,0.041,
,Cn1nc(NS(C)(=O)=O)c2c(Cl)ccc(-n3c([C@H](Cc4cc(F)cc(F)c4)NC(=O)Cn4nc(C(F)F)c5c4C(F)(F)[C@@H]4C[C@H]54)nc4cc(Cl)ccc4c3=O)c21,0.058,
11,COc1ccc2c(=O)n(-c3ccc(Cl)c4c(NS(C)(=O)=O)nn(C)c34)c([C@H](Cc3cc(F)cc(F)c3)NC(=O)Cn3nc(C(F)F)c4c3C(F)(F)[C@@H]3C[C@H]43)nc2c1F,0.13,
,Cn1nc(NS(C)(=O)=O)c2c(Cl)ccc(-n3c([C@H](Cc4cc(F)cc(F)c4)NC(=O)Cn4nc(C(F)F)c5c4C(F)(F)[C@@H]4C[C@H]54)nc4cc(N5CCO[C@@H](C(F)(F)F)C5)ccc4c3=O)c21,0.081,
,Cn1nc(NS(C)(=O)=O)c2c(Cl)ccc(-n3c([C@H](Cc4cc(F)cc(F)c4)NC(=O)Cn4nc(C(F)F)c5c4C(F)(F)[C@@H]4C[C@H]54)nc4cc(N5CCC5)ccc4c3=O)c21,0.11,

clearance [2] [mL/min/kg],Structure (SMILES),"EC50 [1, 4] [nM]",other results
,Cn1nc(NS(C)(=O)=O)c2c(Cl)ccc(-n3c([C@H](Cc4cc(F)cc(F)c4)NC(=O)Cn4nc(C(F)F)c5c4C(F)(F)[C@@H]4C[C@H]54)nc4cc(N5CCCC5)ccc4c3=O)c21,0.23,
,C[C@@H]1CN(c2ccc3c(=O)n(-c4ccc(Cl)c5c(NS(C)(=O)=O)nn(C)c45)c([C@H](Cc4cc(F)cc(F)c4)NC(=O)Cn4nc(C(F)F)c5c4C(F)(F)[C@@H]4C[C@H]54)nc3c2)C[C@H](C)N1C,0.091,
65,COc1cc(OC)c2c(=O)n(-c3ccc(Cl)c4c(NS(C)(=O)=O)nn(C)c34)c([C@H](Cc3cc(F)cc(F)c3)NC(=O)Cn3nc(C(F)F)c4c3C(F)(F)[C@@H]3C[C@H]43)nc2c1,0.064,
,Cn1nc(NS(C)(=O)=O)c2c(Cl)ccc(-n3c([C@H](Cc4cc(F)cc(F)c4)NC(=O)Cn4nc(C(F)F)c5c4C(F)(F)[C@@H]4C[C@H]54)nc4cc(N5CCCOCC5)ccc4c3=O)c21,0.13,
16,Cn1nc(NS(C)(=O)=O)c2c(Cl)ccc(-n3c([C@H](Cc4cc(F)cc(F)c4)NC(=O)Cn4nc(C(F)F)c5c4C(F)(F)[C@@H]4C[C@H]54)nc4cc(N5CCOCC5)ccc4c3=O)c21,0.037,
,COc1ccc2nc([C@H](Cc3cc(F)cc(F)c3)NC(=O)Cn3nc(C(F)F)c4c3C(F)(F)[C@@H]3C[C@H]43)n(-c3ccc(Cl)c4c(NS(C)(=O)=O)nn(C)c34)c(=O)c2c1 (stereo in doubt; 13c),,EC50 ([1]; mt2): 38 nM
,Cn1nc(NS(C)(=O)=O)c2c(Cl)ccc(-n3c([C@H](Cc4cc(F)cc(F)c4)NC(=O)Cn4nc(C(F)F)c5c4C(F)(F)[C@@H]4C[C@H]54)nc4cc(N5CC(C)(C)OC(C)(C)C5)ccc4c3=O)c21,0.12,
2.8,Cn1nc(NS(C)(=O)=O)c2c(Cl)ccc(-n3c([C@H](Cc4cc(F)cc(F)c4)NC(=O)Cn4nc(C(F)F)c5c4C(F)(F)[C@@H]4C[C@H]54)nc4cc(C(C)(F)F)ccc4c3=O)c21,0.078,
,Cn1nc(NS(C)(=O)=O)c2c(Cl)ccc(-n3c([C@H](Cc4cc(F)cc(F)c4)NC(=O)Cn4nc(C(F)F)c5c4C(F)(F)[C@@H]4C[C@H]54)nc4cc(N5CCOCC5=O)ccc4c3=O)c21,0.11,
29,Cn1nc(NS(C)(=O)=O)c2c(Cl)ccc(-n3c([C@H](Cc4cc(F)cc(F)c4)NC(=O)Cn4nc(C(F)F)c5c4C(F)(F)[C@@H]4C[C@H]54)nc4ccc(F)cc4c3=O)c21,0.045,
,Cn1nc(NS(C)(=O)=O)c2c(Cl)ccc(-n3c([C@H](Cc4cc(F)cc(F)c4)NC(=O)Cn4nc(C(F)F)c5c4C(F)(F)[C@@H]4C[C@H]54)nc4cc(N5CCS(=O)(=O)CC5)ccc4c3=O)c21,0.47,
60,CN1CCN(c2ccc3c(=O)n(-c4ccc(Cl)c5c(NS(C)(=O)=O)nn(C)c45)c([C@H](Cc4cc(F)cc(F)c4)NC(=O)Cn4nc(C(F)F)c5c4C(F)(F)[C@@H]4C[C@H]54)nc3c2)CC1,0.15,
19,Cn1nc(NS(C)(=O)=O)c2c(Cl)ccc(-n3c([C@H](Cc4cc(F)cc(F)c4)NC(=O)Cn4nc(C(F)F)c5c4C(F)(F)[C@@H]4C[C@H]54)nc4cc(C(C)(C)C)ccc4c3=O)c21,0.13,
,COC1CCN(c2ccc3c(=O)n(-c4ccc(Cl)c5c(NS(C)(=O)=O)nn(C)c45)c([C@H](Cc4cc(F)cc(F)c4)NC(=O)Cn4nc(C(F)F)c5c4C(F)(F)[C@@H]4C[C@H]54)nc3c2)CC1,0.12,
4.3,Cn1nc(NS(C)(=O)=O)c2c(Cl)ccc(-n3c([C@H](Cc4cc(F)cc(F)c4)NC(=O)Cn4nc(C(F)F)c5c4C(F)(F)[C@@H]4C[C@H]54)nc4cc(C5CC5)ccc4c3=O)c21,0.14,
9.6,Cn1nc(NS(C)(=O)=O)c2c(Cl)ccc(-n3c([C@H](Cc4cc(F)cc(F)c4)NC(=O)Cn4nc(C(F)F)c5c4C(F)(F)[C@@H]4C[C@H]54)nc4cc(N5CCOC(C)(C)C5)ccc4c3=O)c21,0.05,
26,Cn1nc(NS(C)(=O)=O)c2c(Cl)ccc(-n3c([C@H](Cc4cc(F)cc(F)c4)NC(=O)Cn4nc(C(F)F)c5c4C(F)(F)[C@@H]4C[C@H]54)nc4cc(C(C)(C)O)ccc4c3=O)c21,0.15,
11,Cn1nc(NS(C)(=O)=O)c2c(Cl)ccc(-n3c([C@H](Cc4cc(F)cc(F)c4)NC(=O)Cn4nc(C(F)F)c5c4C(F)(F)[C@@H]4C[C@H]54)nc4cc(N5CCCCC5)ccc4c3=O)c21,0.27,
,Cn1nc(NS(C)(=O)=O)c2c(Cl)ccc(-n3c([C@H](Cc4cc(F)cc(F)c4)NC(=O)Cn4nc(C(F)F)c5c4C(F)(F)[C@@H]4C[C@H]54)nc4cc(N5C6COCC5COC6)ccc4c3=O)c21,0.24,
